Source: patent publication US4638009A, “Derivatives of 3-pyrrolidinopropiophenone and a process for preparation thereof” (Hokuriku Pharmaceutical Co., Ltd., priority 1984, dated 1987)
Counter-ions that a name gives are not always drawn.

Tests used:
[1] = tested on: oxotremorine-induced tremor; assay: Effect on oxotremorine-induced tremor; assay type: in vivo, male ddY mice; settings: 100 mg/kg p.o., oxotremorine 1 mg/kg i.p. 15 min later, 0=absent to 5=lack of righting reflex; for tremor score, 5 min: passage of time 5 min; for tremor score, 10 min: passage of time 10 min; for tremor score, 15 min: passage of time 15 min; for tremor score, 20 min: passage of time 20 min; for tremor score, 30 min: passage of time 30 min
Experimental: 3. Effect on oxotremorine-induced tumor
Male ddY mice 5 weeks old were used with 5 animals in a group. The compounds were administrated per os at a dose of 100 mg/kg and after 15 minutes oxotremorine was intraperitoneally administered at dose of 1 mg/kg. The strength of the induced tremor was observed by the method of Suzuki et al (Folia Pharmacologica Japonica, 83, 127(1983) and scored up with passage of time as follows:
4=severe, 5=lack of righting reflex.

[2] = tested on: nicotine-induced convulsion; assay: Activity on nicotine-induced convulsion; assay type: in vivo, male ddY mice; settings: compound 25 mg/kg p.o., nicotine tartrate 3 mg/kg i.v. 15 min later, n=5; for mortality: dead animals because of the convulsions
Experimental: 2. Activity on nicotine-induced convulsion
Male ddY mice 5 weeks old were used with 5 animals in a group. The compounds were administered per os at a dose of 25 mg/kg. After 15 minutes of drug administration, Nicotine tartarate was administered intravenously at an amount of 3 mg/kg and the tonic convulsions and dead animals because of the convulsions have been measured. The effect of the compounds has been indicated by percentage of appearance of tonic convulsion and the mortality.

[3] = versus Tolperisone; cited from earlier work
[4] = cited from earlier work; for side effect (prior art): in vivo
in vivo = settings: mouse
Experimental: Male ddY mice 5 weeks old were used with 5 animals at a group. The compounds were administrated orally with each dosage. LD50 was determined by the Probit method from dead animals dying within 7 days.

Structure (SMILES) | tremor score, 5 min [1] | tremor score, 10 min [1] | tremor score, 15 min [1] | tremor score, 20 min [1] | tremor score, 30 min [1] | appearance of tonic convulsion [2] | mortality [2] | muscle relaxation activity of Eperisone (prior art) [3] | toxicity (prior art) ([4]; Eperisone versus Tolperisone) | side effect (prior art) [4] | LD50 at 168 h (in vivo; po) | LD50 at 168 h (in vivo; oral, deaths within 7 days, Probit method, n=5 per group)
CCc1ccc(C(=O)C(C)CN2CCCC2)cc1 (stereo not drawn) [Compound 2, 4'-Ethyl-2-methyl-3-pyrrolidinopropiophenone] | 0 | 0.4 | 0.3 | 0.4 | 0.4 | 40% | 60% | – | – | – | – | –
CCc1ccc(C(=O)C(C)CN2CCCCC2)cc1 (stereo not drawn) [Eperisone] | – | – | – | – | – | – | – | improvement in muscle relaxation activity | just the same strong toxicity as Tolperisone | hepatic and kidney function disorder | – | –
CCc1ccc(C(=O)C(C)CN2CCCCC2)cc1 (stereo not drawn) [Reference Drug, Eperisone hydrochloride, reference compound] | 0 | 0.4 | 0.3 | 0.2 | 0 | 60% | 100% | – | – | – | 332 mg/kg | –
Cc1ccc(C(=O)C(C)CN2CCCCC2)cc1 (stereo not drawn) [Tolperisone] | – | – | – | – | – | – | – | – | – | hepatic functional disorder | – | –
CCCCc1ccc(C(=O)C(C)CN2CCCC2)cc1 (stereo not drawn) [Compound 1, 4'-n-Butyl-2-methyl-3-pyrrolidinopropiophenone] | 0 | 0.4 | 0.4 | 0.9 | 0.8 | 20% | 40% | – | – | – | – | 520 mg/kg
